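Tested at 5 concentrations; 48 h exposure; 96-well plates; endpoints linearly interpolated, else capped at highest concentration. At the GI50, growth is halved.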 Active and inactive are the calls of the source. Cut-off read from the data, not from the text of the source: active = GI50 up to about 1.1 µM and inactive = higher.
Columns and labels:
Experiment in all cases: NCI anticancer screen, dose series, 48 h
[1] = test system: A549
[2] = test system: COLO 205
[3] = test system: DLD-1
[4] = test system: DMS-114
[5] = test system: DMS-273
[6] = test system: EKVX
[7] = test system: HCC 2998
[8] = test system: HOP-18
[9] = test system: HT-29
[10] = test system: K562
[11] = test system: KM-20L2
[12] = test system: LXFL 529
[13] = test system: M19-MEL
[14] = test system: Malme-3M
[15] = test system: OVCAR-4
[16] = test system: OVCAR-5
[17] = test system: SK-MEL-2
[18] = test system: SK-OV-3
[19] = test system: SNB-75
[20] = test system: SR
[21] = test system: TK-10
[22] = test system: UACC-257
[23] = test system: UACC-62
[24] = test system: 786-0
[25] = test system: A498
[26] = test system: ACHN
[27] = test system: CAKI-1
[28] = test system: CCRF-CEM
[29] = test system: HCT-116
[30] = test system: HCT-15
[31] = test system: HL-60
[32] = test system: HOP-62
[33] = test system: HOP-92
[34] = test system: IGROV-1
[35] = test system: KM12
[36] = test system: LOX IMVI
[37] = test system: M14
[38] = test system: MOLT-4
[39] = test system: NCI-H23
[40] = test system: NCI-H460
[41] = test system: NCI-H522
[42] = test system: OVCAR-8
[43] = test system: RPMI-8226
[44] = test system: RXF 393
[45] = test system: SF-268
[46] = test system: SF-295
[47] = test system: SF-539
[48] = test system: SK-MEL-28
[49] = test system: SK-MEL-5
[50] = test system: SN12C
[51] = test system: SNB-19
[52] = test system: SNB-78
[53] = test system: SW-620
[54] = test system: U-251
[55] = test system: UO-31

SMILES: CO[C@H](/C(C)=C/C=C/C(C)=C/c1coc(C)n1)[C@H](C)[C@H]1C[C@@H](O)[C@@]2(C)O[C@H]2/C=C/[C@@H](C)[C@@H]2C[C@@H](CC(=O)O2)C[C@H]2O[C@@H]2C(=O)O1
- GI50 [1]: < 0.01 µM (active)
- GI50 [2]: < 0.01 µM (active)
- GI50 [3]: 0.0147 µM (active)
- GI50 [4]: < 0.01 µM (active)
- GI50 [5]: < 0.01 µM (active)
- GI50 [6]: 2.03e-06 µM (active)
- GI50 [7]: < 0.01 µM (active)
- GI50 [8]: 0.05 µM (active)
- GI50 [9]: 0.0133 µM (active)
- GI50 [10]: < 0.01 µM (active)
- GI50 [11]: < 0.01 µM (active)
- GI50 [12]: < 0.01 µM (active)
- GI50 [13]: < 0.0236 µM (active)
- GI50 [14]: < 0.01 µM (active)
- GI50 [15]: 5.18e-06 µM (active)
- GI50 [16]: 0.000384 µM (active)
- GI50 [17]: < 0.01 µM (active)
- GI50 [18]: 1.03e-06 µM (active)
- GI50 [19]: < 0.0271 µM (active)
- GI50 [20]: < 0.01 µM (active)
- GI50 [21]: 3.21e-06 µM (active)
- GI50 [22]: < 0.0283 µM (active)
- GI50 [23]: < 0.01 µM (active)

SMILES: CCN(CC)CC(=O)Nc1ccc2c(c1)C(=O)c1ccc(NC(=O)CN(CC)CC)cc1C2=O
- GI50 [24]: 18.9 µM (inactive)
- GI50 [25]: 12.9 µM (inactive)
- GI50 [1]: 27.9 µM (inactive)
- GI50 [26]: 25.5 µM (inactive)
- GI50 [27]: 70.1 µM (inactive)
- GI50 [28]: 20.7 µM (inactive)
- GI50 [2]: 15.2 µM (inactive)
- GI50 [3]: 26.2 µM (inactive)
- GI50 [4]: 20.4 µM (inactive)
- GI50 [5]: 18.7 µM (inactive)
- GI50 [6]: 89.3 µM (inactive)
- GI50 [7]: > 100 µM (inactive)
- GI50 [29]: 13.6 µM (inactive)
- GI50 [30]: 36.4 µM
- GI50 [31]: 18.8 µM (inactive)
- GI50 [32]: 20.3 µM (inactive)
- GI50 [33]: 85.3 µM (inactive)
- GI50 [9]: 30.5 µM (inactive)
- GI50 [34]: 17.7 µM (inactive)
- GI50 [10]: 24.7 µM (inactive)
- GI50 [11]: 49.8 µM (inactive)
- GI50 [35]: 22.3 µM (inactive)
- GI50 [36]: 14.7 µM (inactive)
- GI50 [12]: 22.8 µM (inactive)
- GI50 [37]: 19.7 µM (inactive)
- GI50 [13]: > 100 µM (inactive)
- GI50 [38]: 17.8 µM (inactive)
- GI50 [39]: 77.6 µM (inactive)
- GI50 [40]: 14.1 µM (inactive)
- GI50 [41]: 21.1 µM (inactive)
- GI50 [15]: 39.1 µM (inactive)
- GI50 [16]: > 100 µM (inactive)
- GI50 [42]: 29.5 µM (inactive)
- GI50 [43]: 31.3 µM (inactive)
- GI50 [44]: 3.22 µM (inactive)
- GI50 [45]: 23.1 µM (inactive)
- GI50 [46]: 39 µM (inactive)
- GI50 [47]: 16.3 µM (inactive)
- GI50 [48]: 53.2 µM (inactive)
- GI50 [17]: > 100 µM (inactive)
- GI50 [49]: 21.2 µM (inactive)
- GI50 [18]: 22.9 µM (inactive)
- GI50 [50]: 20.1 µM (inactive)
- GI50 [51]: 23.8 µM (inactive)
- GI50 [19]: 25.7 µM (inactive)
- GI50 [52]: 98.9 µM (inactive)
- GI50 [20]: 18.1 µM (inactive)
- GI50 [53]: 24.9 µM (inactive)
- GI50 [21]: 43 µM (inactive)
- GI50 [54]: 21.6 µM (inactive)
- GI50 [22]: 31.8 µM (inactive)
- GI50 [23]: 73.8 µM (inactive)
- GI50 [55]: > 100 µM (inactive)
